Source: publication PMC5645021 (Organic letters, 2014)

How the values were obtained:
Format in all cases: cell-based
[1] = target: oncogenic mutant K-Ras (mGFP-K-RasG12 V) (Homo sapiens, UniProt P01116, G12V); assay: K-Ras PM mislocalization; settings: for K-Ras PM mislocalization Emax: maximum extent of mislocalization of K-Ras from the PM to the endomembrane, MDCK cells; for IC50: read-out: K-Ras PM mislocalization IC50, mGFP-K-RasG12V in intact MDCK cells
SW620 = assay: MTT cytotoxicity, SW620; settings: read-out: MTT cytotoxicity SW620 IC50; colon cancer cell line SW620
SW620 Ad300 = assay: MTT cytotoxicity, SW620 Ad300; settings: for FR (fold resistance): IC50 ratio for SW620 Ad300 versus SW620; for IC50: read-out: MTT cytotoxicity SW620 Ad300 IC50, P-gp overexpressing daughter cell line SW620 Ad300; for FR (fold resistance), control study: SW620 Ad300 versus SW620
A549 versus H522 = assay: Cytotoxicity toward K-Ras mutated versus non-mutated lung cancer cells; settings: human lung cancer cells

oncogenic mutant K-Ras (mGFP-K-RasG12 V), sequence (P01116 1-188 isoform P01116-2 G12V): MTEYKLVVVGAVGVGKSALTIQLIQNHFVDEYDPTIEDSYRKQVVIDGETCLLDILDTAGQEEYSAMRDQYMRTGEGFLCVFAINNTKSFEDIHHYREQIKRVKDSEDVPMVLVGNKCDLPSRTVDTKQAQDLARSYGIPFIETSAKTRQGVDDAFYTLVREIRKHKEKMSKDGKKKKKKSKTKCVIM

SMILES	K-Ras PM mislocalization Emax [1]	IC50 [1] [nM]	IC50 (SW620) [nM]	FR (fold resistance) (SW620 Ad300)	IC50 (SW620 Ad300) [nM]	increased cytotoxicity toward K-Ras mutated A549 versus non-mutated H522 (A549 versus H522) [fold]	FR (fold resistance), control study (SW620 Ad300; coadministration with the P-gp inhibitor verapamil)	FR (fold resistance), control study (SW620 Ad300; doxorubicin alone)
CC[C@H](C)[C@@H]1OC(=O)C(C)(C)[C@@H](O)[C@@H](Cc2ccccc2)OC(=O)[C@H](C(C)C)OC(=O)[C@@H](NC(=O)c2cccc(NC=O)c2O)[C@H](C)OC1=O [compound 1, neoantimycin]	0.60 ± 0.03	2.9 ± 0.7	60	3.8	230	50	–	–
CC(C)[C@@H]1OC(=O)[C@@H](NC(=O)c2cccc(NC=O)c2O)[C@H](C)OC(=O)[C@H](C(C)C)OC(=O)C(C)(C)[C@@H](O)[C@@H](Cc2ccccc2)OC1=O [compound 2, neoantimycin F]	0.56 ± 0.01	9.9 ± 0.2	160	3.8	610	–	–	–
CCC(C)C1OC(=O)C(NC(=O)c2cccc(NC=O)c2O)C(C)OC(=O)C(C(C)CC)OC(=O)C(C)(C)C(O)C(Cc2ccccc2)OC1=O (stereo not drawn) [compound 3, neoantimycin G]	0.62 ± 0.01	7.9 ± 0.5	40	–	260	–	–	–
CC[C@H](C)[C@@H]1OC(=O)C(C)(C)C(=O)[C@@H](Cc2ccccc2)OC(=O)[C@H](C(C)C)OC(=O)[C@@H](NC(=O)c2cccc(NC=O)c2O)[C@@H](C)OC1=O [compound 4, neoantimycin H]	0.60 ± 0.02	6.4 ± 0.5	70	2.7	190	–	–	–
CCCCCC[C@H]1C(=O)O[C@H](C)[C@H](NC(=O)c2cccc(NC=O)c2O)C(=O)O[C@@H](C)[C@@H]1OC(=O)C(C)C [compound 5, antimycin A2a, reference compound]	0.78 ± 0.02	7.9 ± 0.3	150	2.1	320	> 26	–	–
CCCC[C@H]1C(=O)O[C@H](C)[C@H](NC(=O)c2cccc(NC=O)c2O)C(=O)O[C@@H](C)[C@@H]1OC(=O)C(C)C [compound 6, antimycin A4a, reference compound]	0.79 ± 0.02	3.7 ± 0.3	120	3.7	440	–	–	–
CCC(C)[C@@H]1OC(=O)[C@H](C)OC(=O)[C@@H](NC(=O)c2cccc(NC=O)c2O)[C@@H](C)OC(=O)[C@H](CC(C)C)OC(=O)C(C)(C)C(=O)[C@H](CC(C)C)NC1=O (stereo partly drawn) [compound 7, respirantin, reference compound]	0.78 ± 0.02	0.7 ± 0.1	10	3.0	30	> 33	–	–
COc1cccc2c1C(=O)c1c(O)c3c(c(O)c1C2=O)C[C@@](O)(C(=O)CO)C[C@@H]3O[C@H]1C[C@H](N)[C@H](O)[C@H](C)O1 [doxorubicin]	–	–	–	–	–	–	2.4	22
